From patent US9776979B2, “EBI2 modulators” (Sanford-Burnham Medical Research Institute, priority 2013, dated 2017) come the findings set out here.

Each structure is given as a SMILES string. Like-named read-outs stand apart in the source and are kept apart here.

The target of this assay is EBI2 (Homo sapiens, UniProt P32249). Kind of assay: Cell-based luminescent assay (EBI2 modulation). The method, boiled down:
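Cells plated overnight at 37° C, then exposed to compound at 4-5 uM final with 80 nM 7a,25-OHC agonist for 60 min at 37° C. Luminescence read after 60 min detection at 25° C in the dark; values normalized to neutral and stimulator controls and plate-pattern corrected.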

The mark [1] stands for this setting: cell-based luminescence, 7a,25-OHC final assay concentration 80 nM, 60 minutes incubation, read-out: IC50.

EBI2, sequence (P32249 whole entry): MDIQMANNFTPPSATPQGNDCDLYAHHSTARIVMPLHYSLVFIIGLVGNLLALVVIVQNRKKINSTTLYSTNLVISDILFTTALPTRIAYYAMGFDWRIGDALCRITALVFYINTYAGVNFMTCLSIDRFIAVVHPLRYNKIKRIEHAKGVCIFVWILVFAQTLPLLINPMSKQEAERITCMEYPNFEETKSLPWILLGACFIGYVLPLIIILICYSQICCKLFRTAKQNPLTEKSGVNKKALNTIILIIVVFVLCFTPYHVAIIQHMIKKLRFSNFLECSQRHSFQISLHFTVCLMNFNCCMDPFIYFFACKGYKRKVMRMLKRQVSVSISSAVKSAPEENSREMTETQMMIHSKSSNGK

For the compound `O=C(C#Cc1cccc(Cl)c1)N1CCN(Cc2ccc(F)cc2C(F)(F)F)CC1` [Compound C302, 3-(3-chlorophenyl)-1-(4-{[4-fluoro-2-(trifluoromethyl)phenyl]methyl}piperazinyl)prop-2-yn-1-one], the IC50 under setting [1] was < 100 nM.

Consider `COc1ccc2cc(C(=O)N3CCN(C(c4ccccc4)c4ccccc4)CC3)[nH]c2c1` [Compound C304, 4-(diphenylmethyl)piperazinyl 6-methoxyindol-2-yl ketone], for which the 50% inhibitory concentration (IC50) under setting [1] is < 100 nM.

`Nc1ccc(/C=C/C(=O)N2CCN(C(c3ccccc3)c3ccccc3)CC2)cc1` [Compound C305, (2E)-3-(4-aminophenyl)-1-[4-(diphenylmethyl)piperazinyl]prop-2-en-1-one]: the IC50 under setting [1] was < 100 nM.

For the compound `CCOc1ccc(/C=C/C(=O)N2CCN(S(=O)(=O)c3ccc(C(C)=O)cc3)CC2)cc1` [Compound C307, 4-({4-[(2E)-3-(4-ethoxyphenyl)prop-2-enoyl]piperazinyl}sulfonyl)-1-acetylbenzene], under setting [1], the IC50 is < 100 nM.

For the compound `O=C(/C=C/c1ccccc1)N1CCN(Cc2cccc3ccccc23)CC1` [Compound C308, (2E)-1-[4-(naphthylmethyl)piperazinyl]-3-phenylprop-2-en-1-one], the IC50 under setting [1] was < 100 nM.

Regarding `O=C(C#Cc1ccccc1C(F)(F)F)N1CCN(C(=O)c2ccc(Cl)cc2)CC1` [Compound C309, 1-{4-[(4-chlorophenyl)carbonyl]piperazinyl}-3-[2-(trifluoromethyl)phenyl]prop-2-yn-1-one], under setting [1], the IC50 was < 100 nM.

As for `O=C(c1ccc(-c2nnn[nH]2)cc1)N1CCN(C(=O)c2cc3ccc(Br)cc3[nH]2)CC1` [Compound C310, 6-bromoindol-2-yl 4-[(4-(1H-1,2,3,4-tetraazol-5-yl)phenyl)carbonyl]piperazinyl ketone], the IC50 under setting [1] was < 100 nM.

Take `S=C(c1cnc2ccccc2c1)N1CCN(C(c2ccccc2)c2ccccc2)CC1` [Compound C311, [4-(diphenylmethyl)piperazinyl]-3-quinolylmethane-1-thione]: the IC50 under setting [1] is < 100 nM.

Take `CCCCN1CCN(C(=O)/C=C/c2ccccc2)CC1` [Compound C312, (2E)-1-(4-butylpiperazinyl)-3-phenylprop-2-en-1-one]: the 50% inhibitory concentration (IC50) under setting [1] was < 100 nM.

For the compound `COc1cccc(S(=O)(=O)N2CCN(C(=O)/C=C/c3ccc(F)cc3)CC2)c1` [Compound C314, (2E)-3-(4-fluorophenyl)-1-{4-[(3-methoxyphenyl)sulfonyl]piperazinyl}prop-2-en-1-one], the 50% inhibitory concentration (IC50) under setting [1] is < 100 nM.

`O=C(c1cc2cc(Cl)ccc2[nH]1)N1CCC(Oc2ccc(F)cc2)CC1` [Compound C315, 5-chloroindol-2-yl 4-(4-fluorophenoxy)piperidyl ketone]: under setting [1], the IC50 was < 100 nM.

With `O=C(C#Cc1cccc(Cl)c1)N1CCN(Cc2ccc(Cl)cc2)CC1` [Compound C316, 3-(3-chlorophenyl)-1-{4-[(4-chlorophenyl)methyl]piperazinyl}prop-2-yn-1-one], the half-maximal inhibitory concentration (IC50) under setting [1] was < 100 nM.

For `O=C(c1cc2cc(Cl)ccc2[nH]1)N1CCC(Oc2ccc(Cl)cc2)CC1` [Compound C317, 5-chloroindol-2-yl 4-(4-chlorophenoxy)piperidyl ketone], the IC50 under setting [1] was < 100 nM.

On to `O=C(c1cc2cc(Cl)ccc2[nH]1)N1CCN(Cc2ccc(F)cc2)CC1` [Compound C319, 5-chloroindol-2-yl 4-[(4-fluorophenyl)methyl]piperazinyl ketone], for which the concentration for half-maximal inhibition (IC50) under setting [1] is < 100 nM.

As for `O=C(/C=C/c1ccccc1Cl)N1CCN(C(c2ccccc2)c2ccccc2)CC1` [Compound C320, (2E)-1-[4-(diphenylmethyl)piperazinyl]-3-(2-chlorophenyl)prop-2-en-1-one], the concentration for half-maximal inhibition (IC50) under setting [1] is < 100 nM.

For `Cc1ccc(NC2CCN(C(=O)c3cc4cc(Cl)ccc4[nH]3)CC2)cc1C` [Compound C322, 4-[(3,4-dimethylphenyl)amino]piperidyl 5-chloroindol-2-yl ketone], the half-maximal inhibitory concentration (IC50) under setting [1] was < 100 nM.

Consider `O=C(/C=C/c1ccc(F)cc1)N1CCN(S(=O)(=O)Cc2ccccc2)CC1` [Compound C323, (2E)-3-(4-fluorophenyl)-1-{4-[benzylsulfonyl]piperazinyl}prop-2-en-1-one], for which the IC50 under setting [1] was < 100 nM.

With `COC(=O)c1ccc(CN2CCN(C(=O)c3cc4cc(Cl)ccc4[nH]3)CC2)cc1` [Compound C324, methyl 4-({4-[(5-chloroindol-2-yl)carbonyl]piperazinyl}methyl)benzoate], the IC50 under setting [1] was < 100 nM.

With `O=C(c1cc2cc(Cl)ccc2[nH]1)N1CCN(Cc2ccc(-c3ccccc3)cc2)CC1` [Compound C327, 5-chloroindol-2-yl 4-[(4-phenylphenyl)methyl]piperazinyl ketone], the half-maximal inhibitory concentration (IC50) under setting [1] is < 100 nM.

Turning to `Cc1ccc2[nH]c(C(=O)N3CCN(Cc4ccc(Cl)c(Cl)c4)CC3)cc2c1` [Compound C328, 4-[(3,4-dichlorophenyl)methyl]piperazinyl 5-methylindol-2-yl ketone], the IC50 under setting [1] was < 100 nM.

Consider `O=C(c1ccc(C(F)(F)F)c(F)c1)N1CCN(C(=O)c2cc3ccc(Br)cc3[nH]2)CC1` [Compound C329, 6-bromoindol-2-yl 4-{[3-fluoro-4-(trifluoromethyl)phenyl]carbonyl}piperazinyl ketone], for which, under setting [1], the IC50 was < 100 nM.

Turning to `O=C(c1cc2cc(Cl)ccc2[nH]1)N1CCN(Cc2ccc(C(F)(F)F)cc2)CC1` [Compound C331, 5-chloroindol-2-yl 4-{[4-(trifluoromethyl)phenyl]methyl}piperazinyl ketone], the concentration for half-maximal inhibition (IC50) under setting [1] was < 100 nM.

Regarding `COc1ccc(CN2CCN(C(=O)/C=C/c3ccccc3)CC2)cc1` [Compound C332, (2E)-1-{4-[(4-methoxyphenyl)methyl]piperazinyl}-3-phenylprop-2-en-1-one], the half-inhibitory concentration (IC50) under setting [1] was < 100 nM.

Consider `CC(C)(C)c1ccc(S(=O)(=O)N2CCN(C(=O)/C=C/c3ccc(Cl)c(Cl)c3)CC2)cc1` [Compound C334, (2E)-3-(3,4-dichlorophenyl)-1-(4-{[4-(tert-butyl)phenyl]sulfonyl}piperazinyl)prop-2-en-1-one], for which, under setting [1], the IC50 was < 100 nM.

Regarding `O=C(C#Cc1ccc(Br)cc1)N1CCN(C(=O)c2ccc(F)cc2C(F)(F)F)CC1` [Compound C336, 3-(4-bromophenyl)-1-(4-{[4-fluoro-2-(trifluoromethyl)phenyl]carbonyl}piperazinyl)prop-2-yn-1-one], under setting [1], the IC50 is < 100 nM.

In the case of `CC(C)c1ccc2[nH]c(C(=O)N3CCN(C(c4ccccc4)c4ccccc4)CC3)cc2c1` [Compound C338, 4-(diphenylmethyl)piperazinyl 5-(methylethyl)indol-2-yl ketone], the 50% inhibitory concentration (IC50) under setting [1] was < 100 nM.

On to `Cc1ccc2[nH]c(C(=O)N3CCN(Cc4ccc(Cl)cc4)CC3)cc2c1` [Compound C339, 4-[(4-chlorophenyl)methyl]piperazinyl 5-methylindol-2-yl ketone], for which the IC50 under setting [1] was < 100 nM.

As for `N#Cc1ccccc1S(=O)(=O)N1CCN(C(=O)/C=C/c2ccc(F)cc2)CC1` [Compound C341, 2-({4-[(2E)-3-(4-fluorophenyl)prop-2-enoyl]piperazinyl}sulfonyl)benzenecarbonitrile], under setting [1], the IC50 is < 100 nM.

Take `O=C(C#Cc1cc(F)cc(F)c1)N1CCN(C(=O)c2ccc(Cl)cc2)CC1` [Compound C343, 3-(3,5-difluorophenyl)-1-{4-[(4-chlorophenyl)carbonyl]piperazinyl}prop-2-yn-1-one]: under setting [1], the IC50 is < 100 nM.

On to `O=C(/C=C/c1ccccc1)N1CCN(Cc2ccccc2Br)CC1` [Compound C344, (2E)-1-{4-[(2-bromophenyl)methyl]piperazinyl}-3-phenylprop-2-en-1-one], for which, under setting [1], the IC50 is < 100 nM.

Consider `O=C(c1cc2ccccc2[nH]1)N1CCN(CCc2ccccc2)CC1` [Compound C347, indol-2-yl 4-(phenylethyl)piperazinyl ketone], for which the half-maximal inhibitory concentration (IC50) under setting [1] was < 100 nM.

Turning to `O=C(C#Cc1ccc(F)cc1F)N1CCN(C(=O)c2ccc(Cl)cc2)CC1` [Compound C349, 3-(2,4-difluorophenyl)-1-{4-[(4-chlorophenyl)carbonyl]piperazinyl}prop-2-yn-1-one], under setting [1], the concentration for half-maximal inhibition (IC50) was < 100 nM.

As to `O=C(c1ccc2ccccc2n1)N1CCN(C(c2ccccc2)c2ccccc2)CC1` [Compound C351, 4-(diphenylmethyl)piperazinyl 2-quinolyl ketone], the IC50 under setting [1] was < 100 nM.

As for `O=C(C#Cc1cccc(Cl)c1)N1CCN(Cc2ccc(C(F)(F)F)cc2)CC1` [Compound C353, 3-(3-chlorophenyl)-1-(4-{[4-(trifluoromethyl)phenyl]methyl}piperazinyl)prop-2-yn-1-one], the IC50 under setting [1] is < 100 nM.

With `O=C(/C=C/c1ccccc1)N1CCN(Cc2ccc(Cl)cc2)CC1` [Compound C354, (2E)-1-{4-[(4-chlorophenyl)methyl]piperazinyl}-3-phenylprop-2-en-1-one], the IC50 was < 100 nM.

For the compound `O=C(/C=C/c1ccc(Br)cc1)N1CCCN(S(=O)(=O)/C=C/c2ccccc2)CC1` [Compound C355, (2E)-1-{4-[((1E)-2-phenylvinyl)sulfonyl](1,4-diazaperhydroepinyl)}-3-(4-bromophenyl)prop-2-en-1-one], the IC50 under setting [1] was < 100 nM.

For the compound `O=C(C#Cc1ccc(Cl)cc1)N1CCN(Cc2ccc(C(F)(F)F)cc2)CC1` [Compound C356, 3-(4-chlorophenyl)-1-(4-{[4-(trifluoromethyl)phenyl]methyl}piperazinyl)prop-2-yn-1-one], the half-inhibitory concentration (IC50) under setting [1] was < 100 nM.

Turning to `Cc1cc(F)ccc1OC1CCN(C(=O)c2cc3cc(Cl)ccc3[nH]2)CC1` [Compound C357, 5-chloroindol-2-yl 4-(4-fluoro-2-methylphenoxy)piperidyl ketone], the IC50 under setting [1] is < 100 nM.

Regarding `COC(=O)c1cccc(CN2CCN(C(=O)c3cc4cc(Cl)ccc4[nH]3)CC2)c1` [Compound C358, methyl 3-({4-[(5-chloroindol-2-yl)carbonyl]piperazinyl}methyl)benzoate], under setting [1], the IC50 is < 100 nM.

Regarding `COC(=O)c1cccc(C(=O)N2CCN(C(=O)c3cc4cc(Cl)ccc4[nH]3)CC2)c1` [Compound C363, methyl 3-({4-[(5-chloroindol-2-yl)carbonyl]piperazinyl}carbonyl)benzoate], the IC50 under setting [1] is 100 to 500 nM.

By IC50 is commonly meant the concentration needed to halve the response being measured.
